# Measured values published in patent US6962712B2, “Cosmetic or dermatological composition comprising of a combination of an elastase inhibitor of the N-acylaminoamide family and at least one antifungal agent or at least one antibacterial agent” (L'Oreal, priority 2001, dated 2005).
# Columns and labels:
# [1] = test system: Staphylococcus epidermis; assay: ex vivo bacteria/skin adhesion model, 3H-thymidine labelled bacteria on intact human skin (Example 9); type: cell-based; settings: for Adherent bacteria: control (PBS) = 100%
# Protocol: The activity of resveratrol on the adhesion of micro-organisms to human skin or human mucous membranes was measured.
# The activity of resveratrol (3,4′,5-trihydroxystilbene) on the adhesion of micro-organisms to human skin or human mucous membranes was tested in a bacteria/skin adhesion model, such as described below.
# This ex vivo bacteria/skin adhesion model is based on the use of explants of intact human skin mounted in a sandwich between a bottomless 96 wells plate and a Plexiglas support.
# (§1) This ex vivo bacteria/skin adhesion model is based on the use of intact human skin mounted in a sandwich between a bottomless 96 wells plate and a Plexiglas support. The impervious individualized wells make it possible to test in a standard format the effect of resveratrol on the adhesion of Staphylococcus epidermis (resident bacteria) to the surface of the skin. The bacteria are radiolabelled in the growth phase by the incorporation of 3H-thymidine. This bacterial flora is then deposited in each well. After incubation for one hour at 20° C., the wells are washed three times with phosphate buffered saline (PBS) in order to remove the free bacteria. The acacia honey is then added at 5 and 10% and incubation allowed to proceed for 1 hour at 20° C. At the end of this incubation the content of each well is recovered and counted in scintillation fluid (desorbed bacteria). The wells are then washed with a chaotropic solution which leads to the elution of the adherent bacteria. The washing solutions are also counted in scintillation fluid (adherent bacteria). A positive control (Fucogel® acid (poly-[(α-1,3)-Fuc-(α-1,3)-Gal-(α-1,3)-galacturonic]) acid is included in the study as reference.
# [2] = test system: surviving human skins irradiated by UVA; assay: surviving human skins irradiated by UVA (8 J/cm2), morphometry of elastin fibres and collagen (Example 6); settings: UVA 8 J/cm2 once, 5 μl of compound at 0.2% in ethanol every two days, 7 days at 37° C.
# Protocol: The activity of the compound of Example 2 was evaluated on irradiated surviving human skins irradiated by UVA (8 J/cm2).
# The test is performed in the following manner:
# Fragments of normal human skin derived from four different donors are deposited in inserts placed in culture wells. Culture medium supplemented with antibiotics is added to the bottom of the wells. Passage by slow diffusion occurs between the two compartments through the intermediary of a porous membrane (pore size: 12 μm).
# The culture medium is renewed every three days.
# Every two days 5 μl of the test compound previously dissolved at 0.2% in ethanol are added to the skin fragments.
# The skins are maintained in survival for 7 days at 37° C.
# The skins are irradiated once only at 8 J/cm2 (Vilbert-Lourmat RMX-3W lamp).
# The elastin fibres are stained blue with (+) catechol and quantified morphometrically by computer-assisted image analysis. The mean percentage dermal surface area occupied by the elastin fibres was thus evaluated.
# [3] = test system: Staphylococcus epidermis; assay: ex vivo bacteria/skin adhesion model, 3H-thymidine labelled bacteria on intact human skin (Example 8); type: cell-based; settings: test product at 10%, 1 hour at 20° C., control (PBS) = 100%
# Protocol: The activity of the honey on the adhesion of micro-organisms to the skin or to human mucous membranes was measured.
# as §1, with “of acacia honey” for “of resveratrol”, “bacteria). The” for “bacteria). A”, “positive and negative controls” for “positive control”, “acid and Bioecolia® (Oligo-[α-1,4)-Gluc-(α-1,2)-Fruc-(α-1,6)-Gluc]) described in the publication of Wolf F. et al. (edition of 19th IFSCC Congress, Sydney, 1996) are” for “acid is”, “as references.” for “as reference.”
# [4] = biological target: T1, human leukocyte elastase (HLE) (Homo sapiens, UniProt P08246); assay: in vitro anti-elastase activity against human leukocyte elastase, substrate Me-OSAAPV-p-NA, spectrophotometry; type: biochemical; settings: compound concentration 0.1%; HLE 40 milliunits per ml; 37° C., 60 minutes
# T1 sequence (P08246 30-267): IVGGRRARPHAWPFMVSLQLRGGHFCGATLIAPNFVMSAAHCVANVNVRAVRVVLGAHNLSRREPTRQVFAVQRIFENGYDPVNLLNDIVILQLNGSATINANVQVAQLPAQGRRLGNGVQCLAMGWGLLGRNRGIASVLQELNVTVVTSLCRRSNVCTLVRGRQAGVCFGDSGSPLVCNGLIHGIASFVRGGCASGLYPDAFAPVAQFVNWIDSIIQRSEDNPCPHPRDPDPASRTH
# Protocol: The anti-elastase activity of compounds according to the invention was determined in vitro against human leukocyte elastase (HLE)
# The test was performed in the following manner:
# A substrate Me-OSAAPV-p-NA (methyl-O-succinate alanine alanine proline valine-p-nitroanilide) to which is added the HLE (40 milliunits per ml) and 0.1% of the test compound is incubated at 37° C. for 60 minutes.
# The % of inhibition of the elastase activity tested is then determined by spectrophotometry.
# [5] = Staphylococcus, read-out: % of inhibition of adhesion of the bacteria
compound,measurement,setting,value
"Oc1ccc(C=Cc2cc(O)cc(O)c2)cc1 [resveratrol, 3,4′,5-trihydroxystilbene]",Adherent bacteria,[1]; 0.1 μM,71%
same,Adherent bacteria,[1]; 10 μM,64%
same,inhibition at 0.1 µM,[1]; [5],29%
same,inhibition at 10 µM,[1]; [5],36%
"CC(=O)N(c1cccc(C(F)(F)F)c1)C(C(=O)NCC(=O)O)C(C)C (centres unmarked) [Compound A, {2-[acetyl-(3-trifluoromethyl-phenyl)-amino]-3-methyl-butyrylamino}acetic acid]",Morphometric analysis of elastin fibres (superficial dermis),"[2]; untreated 6.75%, UVA alone 3.9%",6.8%
same,Morphometric analysis of collagen (superficial dermis),"[2]; untreated 87%, UVA alone 81%",92%
"Oligo-[α-1,4)-Gluc-(α-1,2)-Fruc-(α-1,6)-Gluc] [Bloé´colia ®]",Adherent bacteria,[3],76%
same,Desorbed bacteria,[3],89%
same,Adherent bacteria,[3]; listed as Bioecolia®,no significant effect on adhesion
"poly-[(α-1,3)-Fuc-(α-1,3)-Gal-(α-1,3)-galacturonic]) acid [Fucogel ®]",Adherent bacteria,[1]; test product at 10%,42%
same,Adherent bacteria,[3],12%
same,Desorbed bacteria,[3],257%
"CC(=O)OCCNC(=O)C(C(C)C)N(Cc1ccccc1)C(C)=O (centres unmarked) [Compound D, [2-(acetyl-benzyl-amino)-3-methyl-butyrylamino]ethyl acetate]",% inhibition of elastase activity tested,[4],13%
"CCOP(=O)(CC(=O)N(Cc1ccccc1)C(C(=O)NCCOC(C)=O)C(C)C)OCC (centres unmarked) [Compound B, (2-{benzyl-[(diethoxy-phosphoryl)-acetyl]-amino}-3-methyl-butyryl-amino)ethyl acetate]",% inhibition of elastase activity tested,[4],17%
